Results from patent US8536187B2 (Gilead Sciences, Inc., priority 2008, dated 2013).

Assays:
[1] = test system: HCV replicon in human hepatoma Huh-7 cell line; assay: Anti-HCV replicon assay, EC50 (luciferase luminescence); format: cell-based; details: Hepatitis C virus, Huh-7, 72 h
In short: (§1)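 Cytotoxicity (CC50) read by CellTiter-Glo luminescence after 10 min, and antiviral EC50 by luciferase signal after 30 min lysis with substrate, both at room temperature. Preceding step: 3-day exposure of 6000 Huh-7 HCV replicon cells per well to compound dilution series at 37° C, 5% CO2, in 0.5% DMSO.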

[2] = CC50 assay (CellTiter-Glo) in Huh-7 HCV replicon cells; format: cell-based; details: human
In short: as §1

Structure (SMILES)	EC50 [1]	CC50 at 3 days ([2]; Table 2, 3 days incubation)	CC50 at 3 days ([2]; Table 1, 3 days incubation)
COc1ccc(-c2ccc3nc(NC(C)c4cc(F)cc(F)c4)nc(NCC(F)(F)F)c3n2)cc1S(N)(=O)=O (stereo not drawn) [Example 235, 5-(2-(1-(3,5-difluorophenyl)ethylamino)-4-(2,2,2-trifluoroethylamino)pyrido [3,2-d]pyrimidin-6-yl)-2-methoxybenzenesulfonamide]	100 to 250 nM	1000 to 10000 nM	
COc1ccc(-c2ccc3nc(NCc4cccc(C(F)(F)F)c4)nc(NC4(C(F)(F)F)CC4)c3n2)cc1S(C)(=O)=O [Example 113, N^2-(3-(trifluoromethyl)benzyl)-6-(4-methoxy-3-(methylsulfonyl)phenyl)-N^4-(1-(trifluoromethyl)cyclopropyl)pyrido[3,2-d] pyrimidine-2,4-diamine]	100 to 250 nM	> 10000 nM	
COc1ccc(-c2ccc3nc(N[C@H](C)c4ccc(S(N)(=O)=O)cc4)nc(NCC(F)(F)F)c3n2)cc1S(C)(=O)=O [Example 145, 4-((R)-1-(6-(4-methoxy-3-(methylsulfonyl)phenyl)-4-(2,2,2-trifluoroethylamino)pyrido[3,2-d]pyrimidin-2-ylamino)ethyl)benzene-sulfonamide]	100 to 250 nM	1000 to 10000 nM	
C[C@H](Nc1nc(NCc2ccc(S(N)(=O)=O)cc2)nc2ccc(C#CC3CC3)nc12)C(F)(F)F [Example 290, (S)-4-((6-(2-cyclopropyl-ethynyl)-4-(1,1,1-trifluoro-propan-2-ylamino)pyrido [3,2-d]pyrimidin-2-ylamino)methyl)benzene-sulfonamide]	< 100 nM	1000 to 10000 nM	
CC(C)Oc1nc(N[C@H](C)c2ccc(S(N)(=O)=O)cc2)nc2ccc(C#CC3CC3)nc12 [Example 304, (R)-4-(1-(6-(2-cyclopropyl-ethynyl)-4-isopropoxypyrido [3,2-d]pyrimidin-2-ylamino)ethyl)benzenesulfonamide]	< 100 nM	> 10000 nM	
CC1(Oc2nc(NCc3cc(Cl)cc(S(N)(=O)=O)c3)nc3ccc(C#CC4CC4)nc23)CC1 [Example 301, 3-chloro-5-((6-(2-cyclopropyl-ethynyl)-4-(1-methylcyclo-propoxy)pyrido[3,2-d]pyrimidin-2-ylamino)methyl) benzenesulfonamide]	< 100 nM	> 10000 nM	
CS(=O)(=O)c1cc(-c2ccc3nc(NCc4cc(F)cc(S(N)(=O)=O)c4)nc(NC4(C(F)(F)F)CC4)c3n2)ccc1Cl [Example 36, 3-((6-(4-chloro-3-(methylsulfonyl)phenyl)-4-(1-(trifluoromethyl)cyclopropyl-amino)pyrido[3,2-d]pyrimidin-2-ylamino)methyl)-5-fluorobenzenesulfonamide]	< 100 nM	1000 to 10000 nM	
CC(C)(O)CNc1nc(NCC(F)(F)F)c2nc(-c3cccc(S(C)(=O)=O)c3)ccc2n1 [Example 159, 2-methyl-1-(6-(3-(methylsulfonyl)phenyl)-4-(2,2,2-trifluoroethylamino)pyrido[3,2-d]pyrimidin-2-ylamino)propan-2-ol]	100 to 250 nM	> 10000 nM	
COc1ccc(-c2ccc3nc(NCc4ccc(S(N)(=O)=O)cc4)nc(NC4(C#N)CC4)c3n2)cn1 [Example 132, 4-((4-(1-cyanocyclopropylamino)-6-(6-methoxypyridin-3-yl)pyrido[3,2-d]pyrimidin-2-ylamino)methyl)benzene-sulfonamide]	< 100 nM	> 10000 nM	
COCC#Cc1ccc2nc(NCc3cc(Cl)cc(S(N)(=O)=O)c3)nc(NC3(C(F)(F)F)CC3)c2n1 [Example 46, 3-chloro-5-((6-(3-methoxyprop-1-ynyl)-4-(1-(trifluoromethyl)cyclopropyl-amino)pyrido[3,2-d]pyrimidin-2-ylamino)methyl)benzene-sulfonamide]	< 100 nM	> 10000 nM	
CC(C)Oc1nc(NCc2ccc(-n3cncn3)cc2)nc2ccc(-c3ccc(OC(F)F)c(S(C)(=O)=O)c3)nc12 [Example 199, N-(4-(1H-1,2,4-triazol-1-yl)benzyl)-6-(4-(difluoromethoxy)-3-(methylsulfonyl)phenyl)-4-isopropoxypyrido[3,2-d] pyrimidin-2-amine]	< 100 nM	> 10000 nM	
CC[C@@H](Nc1nc(NCC(F)(F)F)c2nc(-c3ccc(F)cc3)ccc2n1)c1ccc(S(N)(=O)=O)cc1 [Example 12, (R)-4-{1-[6-(4-Fluoro-phenyl)-4-(2,2,2-trifluoro-ethylamino)-pyrido[3,2-d]pyrimidin-2-ylamino]-propyl}-benzenesulfonamide]	250 to 2000 nM		10000 to 25000 nM
COc1ccc(CNc2nc(NCC(F)(F)F)c3nc(-c4ccc(F)cc4)ccc3n2)cc1S(N)(=O)=O [Example 6]	100 to 250 nM		> 25000 nM
COCC#Cc1ccc2nc(NCc3cc(C(F)(F)F)cc(S(N)(=O)=O)c3)nc(NCC(F)(F)F)c2n1 [Example 282, 3-((6-(3-methoxyprop-1-ynyl)-4-(2,2,2-trifluoroethylamino)pyrido[3,2-d]pyrimidin-2-ylamino)methyl)-5-(trifluoro-methyl)benzenesulfonamide]	250 to 2000 nM	> 10000 nM	
NC(=O)c1ccc(CNc2nc(NC3(C(N)=O)CC3)c3nc(-c4ccc(F)cc4)ccc3n2)cn1 [Example 133, 5-((4-(1-carbamoylcyclo-propylamino)-6-(4-fluorophenyl)pyrido[3,2-d]pyrimidin-2-ylamino)methyl)picolinamide]	100 to 250 nM	> 10000 nM	
COc1ccc(-c2ccc3nc(NC(C)c4ccc(-n5cncn5)cc4)nc(NC4(C(F)(F)F)CC4)c3n2)cc1S(C)(=O)=O (stereo not drawn) [Example 97, N^2-(1-(4-(1H-1,2,4-triazol-1-yl)phenyl)ethyl)-6-(4-methoxy-3-(methylsulfonyl)phenyl)-N^4-(1-(trifluoromethyl)cyclopropyl)pyrido[3,2-d] pyrimidine-2,4-diamine]	< 100 nM	> 10000 nM	
Cc1nc(C)n(-c2ccc(CNc3nc(OC4(C)CC4)c4nc(-c5ccc(OC(F)F)c(S(C)(=O)=O)c5)ccc4n3)cc2)n1 [Example 205, N-(4-(3,5-dimethyl-1H-1,2,4-triazol-1-yl)benzyl)-6-(4-(difluoromethoxy)-3-(methylsulfonyl)phenyl)-4-(1-methylcyclopropoxy)pyrido [3,2-d]pyrimidin-2-amine]	< 100 nM	> 10000 nM	
C#Cc1ccc2nc(NCc3ccc(S(N)(=O)=O)cc3)nc(OC3CC3)c2n1 [Example 300, 4-((4-cyclopropoxy-6-ethynylpyrido[3,2-d]pyrimidin-2-ylamino)methyl) benzenesulfonamide]	250 to 2000 nM	1000 to 10000 nM	
CCOc1ccc(-c2ccc3nc(N[C@H](C)c4ccc(S(N)(=O)=O)cc4)nc(OC4(C)CC4)c3n2)cc1S(N)(=O)=O [Example 264, 4-((R)-1-(6-(4-ethoxy-3-(aminosulfonyl)phenyl)-4-(1-methylcyclopropoxy)pyrido [3,2-d]pyrimidin-2-ylamino)ethyl)benzenesulfonamide]	< 100 nM	1000 to 10000 nM	
CCOc1nc(N[C@H](C)c2ccc(S(N)(=O)=O)cc2)nc2ccc(C#CC3CC3)nc12 [Example 316, (R)-4-(1-(6-(2-cyclopropyl-ethynyl)-4-ethoxypyrido [3,2-d]pyrimidin-2-ylamino)ethyl)benzenesulfonamide]	100 to 250 nM	> 10000 nM	
C[C@@H](Nc1nc(NCC(F)(F)F)c2nc(-c3cccc(S(C)(=O)=O)c3)ccc2n1)c1ccc(S(=O)(=O)NC(C)(C)C)cc1 [Example 136, N-tert-butyl-4-((R)-1-(6-(3-(methylsulfonyl)phenyl)-4-(2,2,2-trifluoroethylamino)pyrido[3,2-d]pyrimidin-2-ylamino)ethyl)benzene-sulfonamide]	< 100 nM	> 10000 nM	
c1ncn(-c2ccc(CNc3nc(OC4CC4)c4nc(-c5ccc(OC6CCC6)nc5)ccc4n3)cc2)n1 [Example 251, N-(4-(1H-1,2,4-triazol-1-yl)benzyl)-6-(6-cyclobutoxy-pyridin-3-yl)-4-cyclopropoxy-pyrido[3,2-d]pyrimidin-2-amine]	100 to 250 nM	1000 to 10000 nM	
CCOc1ccc(-c2ccc3nc(NCc4ccc(-n5cncn5)cc4)nc(NCC(F)(F)F)c3n2)cn1 [Example 229, N^2-(4-(1H-1,2,4-triazol-1-yl)benzyl)-6-(6-ethoxypyridin-3-yl)-N^4-(2,2,2-trifluoroethyl) pyrido[3,2-d]pyrimidine-2,4-diamine]	< 100 nM	> 10000 nM	
C[C@@H](Nc1nc(NC2(C(F)(F)F)CC2)c2nc(-c3ccc(F)cc3)ccc2n1)c1ccc(S(N)(=O)=O)cc1 [Example 24, (R)-4-{1-[6-(4-fluorophenyl)-4-(1-trifluoromethyl-cyclopropylamino)-pyrido[3,2-d]pyrimidin-2-ylamino]-ethyl}-benzenesulfonamide]	< 100 nM	> 10000 nM	
CCOc1ccc(-c2ccc3nc(NCc4cc(Cl)cc(S(N)(=O)=O)c4)nc(NCC(F)(F)F)c3n2)cn1 [Example 233, 3-chloro-5-((6-(6-ethoxypyridin-3-yl)-4-(2,2,2-trifluoroethylamino)pyrido [3,2-d]pyrimidin-2-ylamino)methyl)benzenesulfonamide]	< 100 nM	1000 to 10000 nM	
NS(=O)(=O)c1ccc(CNc2nc(NCC(F)(F)F)c3nc(-c4ccc(OC(F)F)nc4)ccc3n2)cc1 [Example 244, 4-((6-(6-(difluoromethoxy)pyridin-3-yl)-4-(2,2,2-trifluoroethylamino)pyrido [3,2-d]pyrimidin-2-ylamino)methyl)benzene-sulfonamide]	100 to 250 nM	> 10000 nM	
COc1ccc(-c2ccc3nc(NCc4cc(F)cc(F)c4)nc(NC4(C(F)(F)F)CC4)c3n2)cc1S(C)(=O)=O [Example 40, N^2-(3,5-difluorobenzyl)-6-(4-methoxy-3-(methylsulfonyl)phenyl)-N^4-(1-(trifluoromethyl)cyclopropyl)pyrido[3,2-d] pyrimidine-2,4-diamine]	< 100 nM	1000 to 10000 nM	
